Laboratory results taken from US8372863B2, “Tetrahydro-1H-pyrrolo fused pyridones” (Merck Sharp & Dohme Corp., priority 2008, dated 2013).

These compounds were tested against PHD2 (Homo sapiens, UniProt Q9GZT9) (assay: PHD2 / HIF-1α peptide hydroxylation assay with time resolved fluorescence readout (PHD2 binding activity)). Conditions: FLAG-tagged full length PHD2; 0.2 μM 2-oxoglutarate, 0.5 μM HIF-1α peptide; read-out: PHD2 Activity (PHD2 binding activity expressed as IC50).
Format: biochemical
Procedure: After a 30 min preincubation at room temperature, the enzymatic reactions were initiated by the addition of 4 μL of substrates (final concentrations of 0.2 μM 2-oxoglutarate and 0.5 μM HIF-1α peptide biotinyl-DLDLEMLAPYIPMDDDFQL). After 2 hr at room temperature, the reactions were terminated and signals were developed by the addition of a 25 μL quench/detection mix to a final concentration of 1 mM ortho-phenanthroline, 0.1 mM EDTA, 0.5 nM anti-(His)6 LANCE reagent (Perkin-Elmer Life Sciences), 100 nM AF647-labeled streptavidin (Invitrogen), and 2 μg/ml (His)6-VHL complex (S. Tan(2001) Protein Expr. Purif 21, 224-234). The ratio of time resolved fluorescence signals at 665 and 620 nm was determined, and percent inhibition was calculated relative to an uninhibited control sample run in parallel.

Sequence of PHD2 (Q9GZT9 whole entry): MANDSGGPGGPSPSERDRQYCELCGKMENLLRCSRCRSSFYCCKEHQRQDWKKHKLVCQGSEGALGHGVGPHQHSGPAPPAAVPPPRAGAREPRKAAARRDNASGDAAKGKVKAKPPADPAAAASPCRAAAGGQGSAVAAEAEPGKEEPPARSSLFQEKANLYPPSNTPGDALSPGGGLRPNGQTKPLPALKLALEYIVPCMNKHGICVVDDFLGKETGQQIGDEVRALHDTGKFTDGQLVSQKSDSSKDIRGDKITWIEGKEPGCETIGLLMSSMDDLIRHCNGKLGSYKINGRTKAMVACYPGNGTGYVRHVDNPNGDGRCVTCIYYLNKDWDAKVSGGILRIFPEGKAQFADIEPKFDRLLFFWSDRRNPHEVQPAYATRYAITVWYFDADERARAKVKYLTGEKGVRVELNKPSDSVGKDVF

SMILES	IC50
Cc1ccc(C(=O)N2Cc3c(O)c(C(=O)NCC(=O)O)c(=O)n(Cc4ccc(C(F)(F)F)cc4)c3C2)cn1 [Example 26, N-({4-hydroxy-6-[(6-methylpyridin-3-yl)carbonyl]-2-oxo-1-[4-(trifluoromethyl)benzyl]-2,5,6,7-tetrahydro-1H-pyrrolo[3,4-b]pyridin-3-yl}carbonyl)glycine]	< 10 nM
CN1CCC[C@H]1C(=O)N1Cc2c(O)c(C(=O)NCC(=O)O)c(=O)n(Cc3ccc(C(F)(F)F)cc3)c2C1 [Example 27, N-({4-hydroxy-6-(1-methyl-L-prolyl)-2-oxo-1-[4-(trifluoromethyl)benzyl]-2,5,6,7-tetrahydro-1H-pyrrolo[3,4-b]pyridin-3-yl}carbonyl)glycine]	< 10 nM
O=C(O)CNC(=O)c1c(O)c2c(n(Cc3ccc(C(F)(F)F)cc3)c1=O)CN(C(=O)[C@@H]1CCC(=O)N1)C2 [Example 28, N-({4-hydroxy-2-oxo-6-(5-oxo-L-prolyl)-1-[4-(trifluoromethyl)benzyl]-2,5,6,7-tetrahydro-1H-pyrrolo[3,4-b]pyridin-3-yl}carbonyl)glycine]	< 10 nM
O=C(O)CNC(=O)c1c(O)c2c(n(Cc3ccc(C(F)(F)F)cc3)c1=O)CN(C(=O)c1cscn1)C2 [Example 29, N-({4-hydroxy-2-oxo-6-(1,3-thiazol-4-ylcarbonyl)-1-[4-(trifluoromethyl)benzyl]-2,5,6,7-tetrahydro-1H-pyrrolo[3,4-b]pyridin-3-yl}carbonyl)glycine]	< 10 nM
Cc1cc(C(=O)N2Cc3c(O)c(C(=O)NCC(=O)O)c(=O)n(Cc4ccc(C(F)(F)F)cc4)c3C2)nn1C [Example 31, N-({6-[(1,5-dimethyl-1H-pyrazol-2-ium-3-yl)carbonyl]-4-hydroxy-2-oxo-1-[4-(trifluoromethyl)benzyl]-2,5,6,7-tetrahydro-1H-pyrrolo[3,4-b]pyridin-3-yl}carbonyl)glycine chloride]	< 10 nM

Second part, the compound after the results:

IC50	SMILES
< 10 nM	O=C(O)CNC(=O)c1c(O)c2c(n(Cc3ccc(C(F)(F)F)cc3)c1=O)CN(C(=O)c1cncs1)C2 [Example 30, N-({4-hydroxy-2-oxo-6-(1,3-thiazol-5-ylcarbonyl)-1-[4-(trifluoromethyl)benzyl]-2,5,6,7-tetrahydro-1H-pyrrolo[3,4-b]pyridin-3-yl}carbonyl)glycine]
10 to 100 nM	O=C(O)CNC(=O)c1c(O)c2c(n(Cc3ccc(C(F)(F)F)cc3)c1=O)CN(C(=O)c1ccno1)C2 [Example 33, N-({4-hydroxy-6-(isoxazol-5-ylcarbonyl)-2-oxo-1-[4-(trifluoromethyl)benzyl]-2,5,6,7-tetrahydro-1H-pyrrolo[3,4-b]pyridin-3-yl}carbonyl)glycine]
< 10 nM	O=C(O)CNC(=O)c1c(O)c2c(n(Cc3ccc(C(F)(F)F)cc3)c1=O)CN(C(=O)c1nccs1)C2 [Example 34, N-({4-hydroxy-2-oxo-6-(1,3-thiazol-2-ylcarbonyl)-1-[4-(trifluoromethyl)benzyl]-2,5,6,7-tetrahydro-1H-pyrrolo[3,4-b]pyridin-3-yl}carbonyl)glycine]
< 10 nM	O=C(O)CNC(=O)c1c(O)c2c(n(Cc3ccc(C(F)(F)F)cc3)c1=O)CN(C(=O)c1csnn1)C2 [Example 35, N-({4-hydroxy-2-oxo-6-(1,2,3-thiadiazol-4-ylcarbonyl)-1-[4-(trifluoromethyl)benzyl}-2,5,6,7-tetrahydro-1H-pyrrolo[3,4-b]pyridin-3-yl}carbonyl)glycine]
< 10 nM	O=C(O)CNC(=O)c1c(O)c2c(n(Cc3ccc(C(F)(F)F)cc3)c1=O)CN(C(=O)c1cocn1)C2 [Example 37, N-({4-hydroxy-6-(1,3-oxazol-4-ylcarbonyl)-2-oxo-1-[4-(trifluoromethyl)benzyl]-2,5,6,7-tetrahydro-1H-pyrrolo[3,4-b]pyridin-3-yl}carbonyl)glycine]
< 10 nM	O=C(O)CNC(=O)c1c(O)c2c(n(Cc3ccc(-c4ccccc4)cc3)c1=O)CN(C(=O)c1cscn1)C2 [Example 38, N-{[1-(biphenyl-4-ylmethyl)-4-hydroxy-2-oxo-6-(1,3-thiazol-4-ylcarbonyl)-2,5,6,7-tetrahydro-1H-pyrrolo[3,4-b]pyridin-3-yl]carbonyl}glycine]
